{
  "source": "patent US9371539B2",
  "about": "“DNA encoding ring zinc-finger protein and the use of the DNA in vectors and bacteria and in plants” (Board of Trustees of Michigan State University, priority 2006, dated 2016)",
  "key": {"Arabidopsis thaliana [1]": {"test_system": "Arabidopsis thaliana", "assay": "Effect of ABA on seed germination (radicle emergence >1 mm)", "assay_type": "in vivo", "method": "(§1) Arabidopsis thaliana, ecotype Columbia (Col), was used as the wild-type plant for phenotypic assays for comparison to transgenic 35S::XERICO Arabidopsis thaliana, plants in these experiments. Unless noted otherwise, plants were grown under sterile conditions on MS nutrient agar media (1×MS basal medium (Sigma, stock number M5519) with 2% sucrose and 0.3% phytagel (Sigma) containing 2% sucrose or on soil in a growth chamber (16 h light/8 h dark) at 23° C., after stratification. For monitoring of hypocotyl elongation and root growth with response salt/osmotic stress, a minimum of 20 seeds were sowed on MS nutrient agar media containing specified treatments, following which the plates were held in the vertical position for 7 days. For testing the effects of ABA on germination and early seedling growth, seeds were grown horizontally. For abiotic stress treatments, wild-type seedlings were grown on MS nutrient agar media containing 2% sucrose for 10-days and then treated the stresses indicated in FIG. 1, for up to 24 hour without a treatment control. Samples were collected at the indicated time and frozen immediately in liquid N2 and were stored at −80° C. until use. Experiments were performed in triplicates and repeated at least three times.\n(§2) Since the hypersensitivity to salt or osmotic stress was the most prominent phenotype of the three independent T3 homozygous lines of 35S::XERICO plants, the functional relationship of the gene with ABA, a plant stress hormone involved in salt and drought stress adaptation, was investigated. […] Although 35S::XERICO plants germinated slightly later than wild-type even in the absence of exogenous ABA (FIG. 3c), germination was further delayed following ABA treatment. At 0.1 μM of ABA, 13% of 35S::XERICO plants were germinated 1.5 day after sowing, while 43% of wild-type seeds germinated. […] Germination was scored by the emergence of a radicle (>1 mm). The number of ‘cotyledon opening’ of seedlings at five days after sowing were counted and recorded. […]"}, "Arabidopsis thaliana [2]": {"test_system": "Arabidopsis thaliana", "assay": "Effect of ABA on early seedling growth and cotyledon opening", "assay_type": "in vivo", "method": "as §1, §2"}, "AtNCED3": {"test_system": "AtNCED3", "assay": "RNA gel blot analysis of response to ABA treatment", "assay_type": "in vivo, Arabidopsis thaliana", "settings": "10 μM ABA up to 24 hour; both wild-type and 35S::XERICO plants", "method": "(a) RNA gel blot analysis showing a response to ABA. Wild-type (WT) and 35S::XERICO plants were grown on MS nutrient agar media for 10 days and then treated with 10 μM of ABA for up to 24 hour. Total RNA was isolated at the indicated times after treatment. Each lane was loaded with 10 μg total RNA. The RNA blot was hybridized with [^32P]-labeled gene specific probes for AtNCED3 (SEQ ID NO:452), AtCYP707A2 (SEQ ID NO:428) and RD29a (SEQ ID NO:386). Probing with Actin 8 (SEQ ID NO:455) was used as a RNA loading control. (b) RNA gel blot analysis in response to drought treatment. Wild-type (WT) and 35S::XERICO plants were grown on MS medium for 14 days and then dehydrated (see, EXAMPLE I).\nTotal RNA was extracted using the Trizol reagent method (Gibco-BRL, Gaithersburg, Md.). For northern blot analysis, 10 μg of total RNA from each sample was denatured and separated using a 1% agarose-formaldehyde gel. RNA was transferred onto a Hybond-N+ membrane (Stratagene, La Jolla, Calif.) by capillary action. Gene-specific probes were prepared by PCR and labeled with [^32P]-dCTP using a Prime-it II Random Primer Labeling kit (Stratagene, La Jolla, Calif.). […]"}, "XERICO": {"test_system": "XERICO", "assay": "Expression of XERICO upon ABA treatment", "assay_type": "in vivo, Arabidopsis thaliana", "settings": "ABA 10 μM; up to 3-hours post-treatment", "method": "Total RNA was extracted using the Trizol reagent method (Gibco-BRL, Gaithersburg, Md.). For northern blot analysis, 10 μg of total RNA from each sample was denatured and separated using a 1% agarose-formaldehyde gel. RNA was transferred onto a Hybond-N+ membrane (Stratagene, La Jolla, Calif.) by capillary action. Gene-specific probes were prepared by PCR and labeled with [^32P]-dCTP using a Prime-it II Random Primer Labeling kit (Stratagene, La Jolla, Calif.). Primers used in this analysis were following: XERICO (forward; SEQ ID NO:439, 5′-[…]-3 and reverse; SEQ ID NO:440, 5′-[…]-3′), AtNCED3 (forward, SEQ ID NO:441, 5′-[…]-3′ and reverse; SEQ ID NO:442, 5′-[…]-3′), AtCYP707A2 (forward; SEQ ID NO:443, 5′-[…]-3′ and reverse; SEQ ID NO:444, 5′-[…]-3′), RD29a (forward; SEQ ID NO:445, 5′-[…]-3′ and reverse; SEQ ID NO:446, 5′-[…]-3′), and Actin 8 (forward; SEQ ID NO:447, 5′-[…]-3′ and reverse; SEQ ID […], 5′-[…]-3′). Hybridization was carried out using ULTRAhyb® according to the manufacturer's instructions (Ambion, Austin, Tex.), and a Kodak Biomax film (Sigma) was exposed to the blot. An Actin 8 gene (SEQ ID NO:457) or ethidium bromide-stained ribosomal RNA was used as a loading control."}, "AtTLP9": {"molecular_target": "T1, AtTLP9 (Arabidopsis thaliana, UniProt Q9SQU1)", "T1 construct": "expressed in transfected cells; host or cells: yeast strain AH109", "T1 sequence (Q9SQU1 1-380)": "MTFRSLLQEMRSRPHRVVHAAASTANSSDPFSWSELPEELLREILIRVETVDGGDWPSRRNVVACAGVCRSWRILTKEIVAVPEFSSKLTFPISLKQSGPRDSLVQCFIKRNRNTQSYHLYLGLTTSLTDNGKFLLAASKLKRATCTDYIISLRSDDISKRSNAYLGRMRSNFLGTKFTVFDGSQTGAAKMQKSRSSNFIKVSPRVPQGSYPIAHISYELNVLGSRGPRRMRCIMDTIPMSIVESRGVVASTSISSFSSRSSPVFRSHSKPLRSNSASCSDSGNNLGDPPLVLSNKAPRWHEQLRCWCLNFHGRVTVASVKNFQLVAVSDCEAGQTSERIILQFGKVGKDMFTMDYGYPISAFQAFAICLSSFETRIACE", "assay": "Yeast two-hybrid screening", "assay_type": "binding", "settings": "yeast AH109; truncated XERICO without transmembrane domain as bait", "method": "(§3) Two-hybrid screening was performed using the BD Matchmaker™ library construction and screening kit (Clonetech, Palo Alto, Calif.); pGADT7 was used as the base for a GAL4 activation domain (AD) vector and pGBKT7 was used for a GAL4 DNA-binding domain (DNA-BD) vector (pGADT7 and pGBKT7 were obtained from “BD Matchmaker Library Construction & Screening Kits” (Clontech, Palo Alto, Calif.)). The yeast strain AH109 (leu^−, trp^−, Ade^−, his^−) (obtained from “BD Matchmaker Library Construction & Screening Kits (Clontech, Palo Alto, Calif.)) with chromosomally integrated reporter genes lacZ and HIS under the control of the GAL1 promoter activated by the GAL4 transcription factor was used to host all constructs. Truncated XERICO cDNA without a transmembrane domain (SEQ ID NO: 451) was amplified by PCR using primers 5′-[…]-3′ (forward; SEQ ID NO:449) and 5′-[…]-3′ (reverse; SEQ ID NO:450) designed to contain EcoRI and PstI site, respectively. The amplified PCR product was digested with EcoRI and PstI, and subcloned into pGBKT7 as a fusion to the DNA binding domain of GAL4 and verified by sequencing. The pGBKT7/XERICO vector was used as a bait to screen an Arabidopsis thaliana cDNA library in pGADT7 as a fusion to the activation domain of GAL4. […]"}, "AtUBC8": {"molecular_target": "T2, AtUBC8 (Arabidopsis thaliana, UniProt P35131)", "T2 construct": "expressed in transfected cells; host or cells: yeast strain AH109", "T2 sequence (P35131 whole entry, the tested form may be a part)": "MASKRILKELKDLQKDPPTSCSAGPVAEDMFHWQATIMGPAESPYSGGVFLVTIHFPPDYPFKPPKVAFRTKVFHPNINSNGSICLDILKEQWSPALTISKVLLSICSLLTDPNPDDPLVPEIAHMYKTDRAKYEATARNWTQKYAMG", "assay": "Yeast two-hybrid screening", "assay_type": "binding", "settings": "yeast AH109; truncated XERICO without transmembrane domain as bait", "method": "as §3"}},
  "data": [
    {"molecule": "CC1=CC(=O)CC(C)(C)[C@@]1(O)/C=C/C(C)=C\\C(=O)O", "note": "[ABA, abscisic acid]", "values": [
      {"measurement": "plants germinated", "setting": "Arabidopsis thaliana [1]; 0.1 μM ABA, 1.5 day after sowing, 35S::XERICO plants", "value": 13, "unit": "%"},
      {"measurement": "seeds germinated", "setting": "Arabidopsis thaliana [1]; 0.1 μM ABA, 1.5 day after sowing, wild-type seeds", "value": 43, "unit": "%"},
      {"measurement": "plants failed to germinate", "setting": "Arabidopsis thaliana [1]; 1.0 μM ABA, prolonged incubation, 35S::XERICO plants", "value": "more than 20%"},
      {"measurement": "early seedling growth", "setting": "Arabidopsis thaliana [2]; 0.1 μM exogenous ABA, three independent lines of 35S::XERICO plants, compared to wild-type", "value": "arrested immediately after germination"},
      {"measurement": "cotyledon opening", "setting": "Arabidopsis thaliana [2]; 1 μM ABA, five days after sowing, 35S::XERICO plants", "value": "did not develop a cotyledon"},
      {"measurement": "plants with opened cotyledons", "setting": "Arabidopsis thaliana [2]; 1 μM ABA, five days after sowing, wild-type plants", "value": "approximately 80%"},
      {"measurement": "transcripts of AtNCED3", "setting": "AtNCED3", "value": "clearly increased"},
      {"measurement": "expression of XERICO", "setting": "XERICO", "value": "no significant changes"}
    ]},
    {"molecule": "XERICO: protein encoded by Arabidopsis thaliana gene AT2G04240; 162 amino acids, RING-H2 zinc-finger motif (protein) MGLSSLPGPSEGMLCVILVNTALSISIVKGIVRSFLGIVGISLSPSSSSPSSVTVSSENSSTSESFDFRVCQPESYLEEFRNRTPTLRFESLCRCKKQADNECSVCLSKFQGDSEINKLKCGHLFHKTCLEKWIDYWNITCPLCRTPLVVVPEDHQLSSNVW", "values": [
      {"measurement": "interaction with AtTLP9", "setting": "AtTLP9", "value": "interacts"},
      {"measurement": "interaction with AtUBC8", "setting": "AtUBC8", "value": "interacts"}
    ]}
  ]
}
